The text below walks through data of patent US20240254089A1, “MODULATORS OF MAS-RELATED G-PROTEIN RECEPTOR X4 AND RELATED PRODUCTS AND METHODS” (ESCIENT PHARMACEUTICALS, INC., priority 2020, published 2024).

The target in this test is T1, human MRGPR X4 (Homo sapiens, UniProt Q96LA9).
T1 construct: expressed in transfected cells
The test is described as follows: MRGPR X4 antagonist activity, IP-One Gq HTRF assay in stably transfected HEK cells. Format: cell-based. An outline of the steps: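 IC50 comes from HTRF IP-1 accumulation in stably transfected HEK cells expressing human MRGPR X4. Compounds (10 uM top, 1:3 serial, 10 points) were co-incubated with 10 μM bilirubin, 20 μM deoxycholic acid or 100 μM conjugated bilirubin in LiCl-containing buffer, pH 8, for 1 h at 37 °C plus 30 min at room temperature.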
(In general: In TR-FRET formats the signal depends on donor and acceptor labels being close together.)

Setting [1] is: versus 20 μM deoxycholic acid agonist, HEK cells expressing human MRGPR X4, read-out: MRGPRX4 Antagonist Activity.

pIC50: −log10 of the molar value. Where two headings read alike, the source gives them in different places.

T1 sequence (Q96LA9 whole entry): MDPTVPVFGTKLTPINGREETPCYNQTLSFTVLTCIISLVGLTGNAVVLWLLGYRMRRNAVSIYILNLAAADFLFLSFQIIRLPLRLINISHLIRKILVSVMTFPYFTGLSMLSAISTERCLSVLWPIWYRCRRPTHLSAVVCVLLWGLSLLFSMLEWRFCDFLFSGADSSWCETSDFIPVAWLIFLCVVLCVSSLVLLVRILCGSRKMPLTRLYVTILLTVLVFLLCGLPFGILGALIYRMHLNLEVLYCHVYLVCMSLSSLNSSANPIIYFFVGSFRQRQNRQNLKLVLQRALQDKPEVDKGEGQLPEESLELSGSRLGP

For `COc1ccccc1CCNC(=O)c1cn(Cc2ccc(Cl)cc2)c2ccccc12` [Compound 177], the pIC50 is 6.30 to 7.00.

Consider `O=C(NCCc1nc2ccccc2[nH]1)c1nn(Cc2ccc(Cl)cc2)c2ccccc12` [Compound 357], for which the pIC50 was more than 7.00.

Take `COc1cccc(Cn2nc(C(=O)NCCc3cccnc3)c3ccccc32)c1` [Compound 101]: the pIC50 is 5.60 to 6.00.

In the case of `O=C(NCCc1nnc2ccccn12)c1nn(CC2CCCCC2)c2ccccc12` [Compound 488], the pIC50 was 6.00 to 6.30.

Regarding `O=C(NCc1ccnc2[nH]ccc12)c1nn(Cc2ccc(Cl)cc2)c2ccccc12` [Compound 386], the pIC50 is less than 5.60.

Regarding `Cc1ccccc1S(=O)(=O)NC(=O)c1nn(Cc2ccc(C(F)(F)F)cc2Cl)c2ccccc12` [Compound 284], under setting [1], the pIC50 is 5.60 to 6.00.

`COc1ccccc1OCCn1nc(C(=O)NCCc2nnc3ccccn23)c2ccccc21` [Compound 486]: the pIC50 is 6.00 to 6.30.

For `O=C(NCCc1nnc2ccccn12)c1nn(Cc2ccc(C(F)(F)F)cc2)c2ccc(F)cc12` [Compound 531], the pIC50 was more than 7.00.

`N#Cc1ccc2c(c1)c(C(=O)NCCc1nnc3ccccn13)nn2Cc1ccc(Cl)cc1` [Compound 551] showed a pIC50 of more than 7.00.

The compound `O=C(NCCc1ccccn1)c1cn(Cc2ccccc2)c2ccccc12` [Compound 234] gave a pIC50 of less than 5.60.

For the compound `O=C(NCCOc1ccncc1)c1nn(Cc2ccc(Cl)cc2)c2ccccc12` [Compound 406], the pIC50 under setting [1] is 5.60 to 6.00.

`O=C(NCCc1ccc(C(F)(F)F)nc1)c1cn(Cc2ccc(Cl)cc2)c2ccccc12` [Compound 197] had a pIC50 of 6.00 to 6.30.

Take `CS(=O)(=O)c1ccccc1CNC(=O)c1nn(Cc2ccc(Cl)cc2)c2ccccc12` [Compound 379]: the pIC50 is less than 5.60.

With `O=C(NCCc1cccnc1)c1nn(Cc2ccc(Cl)cc2Cl)c2ccccc12` [Compound 16], the pIC50 is more than 7.00.

For `COc1ccccc1NC(=O)CS(=O)(=O)c1cn(Cc2ccc(Cl)cc2)c2ccccc12` [Compound 246], the pIC50 under setting [1] was 5.60 to 6.00.

With `N#Cc1ccc(Cn2cc(C(=O)NCCc3cccnc3)c3ccccc32)cc1` [Compound 193], the pIC50 was 6.00 to 6.30.

`O=C(NCc1cccc2[nH]ncc12)c1nn(Cc2ccc(Cl)cc2)c2ccccc12` [Compound 387] gave a pIC50 of less than 5.60.

In the case of `O=C(NCCc1nnc2ccccn12)c1nn(Cc2csc(-c3ccccc3)n2)c2ccccc12` [Compound 512], the pIC50 is 6.30 to 7.00.

The compound `Cc1ccc(Cn2cc(C(=O)NCCc3nc4ccccc4s3)c3ccccc32)cc1` [Compound 192] gave a pIC50 of 6.00 to 6.30.

Compound `O=C(NCCc1ccc(C(F)(F)F)cc1)c1cn(Cc2ccc(Cl)cc2)c2ccccc12` [Compound 208] showed a pIC50 of 5.60 to 6.00.

In turn, `Cn1ccc(CCNC(=O)c2nn(Cc3ccc(Cl)cc3)c3ccccc23)n1` [Compound 48] had a pIC50 of 6.30 to 7.00.

On to `O=C(NCCc1nnc2ccccn12)c1nn(Cc2ccc(-n3cccn3)cc2)c2ccccc12` [Compound 461], for which the pIC50 is 5.60 to 6.00.

In the case of `N#Cc1ccc(Cn2nc(C(=O)NCCc3nnc4ccccn34)c3ccccc32)s1` [Compound 466], the pIC50 is 6.30 to 7.00.

Regarding `Cc1ccc(Cn2nc(C(=O)NCCc3nncn3C)c3ccccc32)cc1` [Compound 107], the pIC50 is 5.60 to 6.00.

Compound `O=C(NCc1ccc2ncccc2c1)c1nn(Cc2ccc(Cl)cc2)c2ccccc12` [Compound 372] showed a pIC50 of less than 5.60.

`Cc1ccc(Cn2nc(C(=O)NCCc3ccco3)c3ccccc32)cc1` [Compound 122] gave a pIC50 of 5.60 to 6.00.

With `O=C(CS(=O)(=O)c1cn(Cc2ccc(Cl)cc2)c2ccccc12)Nc1cccnc1` [Compound 239], under setting [1], the pIC50 was 6.30 to 7.00.

In turn, `O=C(NCCc1noc(-c2ccccc2)n1)c1nn(Cc2ccc(Cl)cc2)c2ccccc12` [Compound 105] had a pIC50 of 5.60 to 6.00.

On to `O=C(CS(=O)(=O)c1cn(Cc2ccc(Cl)cc2)c2ccccc12)Nc1ccccc1F` [Compound 237, 2-((1-(4-chlorobenzyl)-1H-indol-3-yl)sulfonyl)-N-(2-fluorophenyl)acetamide], for which the pIC50 under setting [1] is 6.30 to 7.00.

Compound `O=C(NCCCn1ccnc1)c1nn(Cc2ccc(Cl)cc2)c2ccccc12` [Compound 345] showed a pIC50 of less than 5.60.

`Cc1ccc(Cn2cc(C(=O)NCc3ccncc3)c3ccccc32)cc1` [Compound 231] gave a pIC50 of less than 5.60.

`Cc1cccc(CCNC(=O)c2cn(Cc3ccc(Cl)cc3)c3ccccc23)n1` [Compound 153]: the pIC50 was more than 7.00.

As for `O=C(NCCc1c[nH]c2ccccc12)c1nn(Cc2ccc(OC(F)(F)F)cc2)c2ccccc12` [Compound 93], the pIC50 was 5.60 to 6.00.

In turn, `O=C(CNC(=O)c1nn(Cc2ccc(Cl)cc2)c2ccccc12)NCC(F)F` [Compound 418] had a pIC50 of less than 5.60.

Turning to `O=C(NCCc1nnc2ccccn12)c1nn(Cc2cnn(-c3ccccc3)c2)c2ccccc12` [Compound 498], the pIC50 was 6.30 to 7.00.

Regarding `Cc1ccc(Cn2cc(C(=O)NCCc3ccccn3)c3ccccc32)cc1` [Compound 158], the pIC50 is 6.30 to 7.00.

Compound `O=C(NCCc1cccc(O)c1)c1nn(Cc2ccc(Cl)cc2)c2ccccc12` [Compound 9] showed a pIC50 of more than 7.00.

In the case of `CC(C)(CNC(=O)c1cn(Cc2ccc(Cl)cc2)c2ccccc12)c1cccnc1` [Compound 233], the pIC50 was less than 5.60.

`O=C(NCC(O)c1cccnc1)c1cn(Cc2ccc(Cl)cc2)c2ccccc12` (stereo not drawn) [Compound 150] had a pIC50 of 6.30 to 7.00.

As to `O=C(NS(=O)(=O)c1ccc(Cl)cc1Cl)c1nn(Cc2cccc(F)c2)c2ccccc12` [Compound 261], the pIC50 is 6.00 to 6.30.

The compound `Cc1ccc(Cn2nc(C(=O)NCCc3cnccn3)c3ccccc32)cc1` [Compound 97] showed a pIC50 of 5.60 to 6.00.

As to `CN1CCN(CCCn2nc(C(=O)NCCc3nnc4ccccn34)c3ccccc32)CC1` [Compound 444], the pIC50 was less than 5.60.

Consider `Cc1ccc(CCNC(=O)c2cn(Cc3ccc(Cl)cc3)c3ccccc23)cn1` [Compound 151], for which the pIC50 is more than 7.00.

`O=C(NCCc1nnc2n1CCCC2)c1nn(Cc2ccc(Cl)cc2)c2ccccc12` [Compound 25] showed a pIC50 of more than 7.00.

As to `COc1ccc(Cn2cc(C(=O)NCCc3cccnc3)c3ccccc32)cc1` [Compound 176], the pIC50 was 6.30 to 7.00.

Consider `O=C(Nc1cncnc1)c1nn(Cc2ccc(Cl)cc2)c2ccccc12` [Compound 133], for which the pIC50 is 5.60 to 6.00.

Compound `O=C(NCCc1nnc2ccccn12)c1nn(Cc2ccc(Cl)cc2)c2ccc(Cl)cc12` [Compound 12] gave a pIC50 of more than 7.00.

`CNC(=O)c1cccc(CNC(=O)c2nn(Cc3ccc(Cl)cc3)c3ccccc23)c1` [Compound 399] gave a pIC50 of less than 5.60.

In turn, `COc1cc(Cl)ccc1Cn1nc(C(=O)NCCc2nnc3n2CCCCC3)c2ccccc21` [Compound 64] showed a pIC50 of 6.30 to 7.00.

Compound `Cc1cc(C)nc(CCNC(=O)c2nn(Cc3ccc(Cl)cc3)c3ccccc23)n1` [Compound 119] had a pIC50 of 5.60 to 6.00.

On to `O=C(NS(=O)(=O)c1ccccc1C(F)(F)F)c1nn(Cc2ccc(OC(F)F)cc2)c2ccccc12` [Compound 262], for which the pIC50 under setting [1] is 6.00 to 6.30.

`Cn1ncc2cc(Cn3nc(C(=O)NCCc4nnc5ccccn45)c4ccccc43)ccc21` [Compound 452] gave a pIC50 of 6.00 to 6.30.

`O=C(O)c1nn(Cc2ccc(Cl)cc2)c2ccccc12` [Compound 319] showed a pIC50 of 5.60 to 6.00.

For the compound `Cc1ncccc1CCNC(=O)c1cn(Cc2cccc(F)c2)c2ccccc12` [Compound 212], the pIC50 was 5.60 to 6.00.

Regarding `Cc1ccc(Cn2nc(C(=O)NCCc3cnoc3)c3ccccc32)cc1` [Compound 128], the pIC50 is less than 5.60.

As for `Cc1cc(F)cc(S(=O)(=O)NC(=O)c2nn(Cc3ccc(OC(F)F)cc3)c3ccccc23)c1` [Compound 274], the pIC50 under setting [1] is 5.60 to 6.00.

The compound `O=C(NCCn1nnc2ccccc21)c1nn(Cc2ccc(Cl)cc2)c2ccc(F)cc12` [Compound 533] showed a pIC50 of more than 7.00.

`O=C(NCCc1nnc2ccccn12)c1nn(Cc2nc(C(F)(F)F)no2)c2ccccc12` [Compound 513] gave a pIC50 of less than 5.60.

`Cc1cc(C)c2oc(Cn3nc(C(=O)NCCc4nnc5ccccn45)c4ccccc43)cc2c1` [Compound 557] showed a pIC50 of 6.30 to 7.00.

With `O=C(NCCc1cccc(Cl)c1)c1nn(Cc2ccc(Cl)cc2)c2ccccc12` [Compound 339], the pIC50 is 6.00 to 6.30.

For `O=C(NCCc1ccc(Cl)c(Cl)c1)c1cn(Cc2ccc(Cl)cc2)c2ccccc12` [Compound 344], the pIC50 was less than 5.60.

Take `O=C(NCC1(c2cccnc2)CC1)c1cn(Cc2ccc(Cl)cc2)c2ccccc12` [Compound 230]: the pIC50 under setting [1] was less than 5.60.

`O=C(NCCc1nnc2ccccn12)c1nn(Cc2nc3ccc(C(F)(F)F)cc3[nH]2)c2ccccc12` [Compound 522]: the pIC50 is 6.00 to 6.30.

Regarding `O=C(NCc1nc2ccccc2o1)c1nn(Cc2ccc(Cl)cc2)c2ccccc12` [Compound 393], the pIC50 was less than 5.60.

As to `O=C(NS(=O)(=O)c1ccccn1)c1nn(Cc2ccc(Cl)cc2)c2ccccc12` [Compound 291], under setting [1], the pIC50 was 5.60 to 6.00.

`O=C(NCCc1nnc2ccccn12)c1nn(Cc2ccc(Cl)cc2)c2ccc(F)cc12` [Compound 2] showed a pIC50 of more than 7.00.

Regarding `CNC(=O)CS(=O)(=O)c1cn(Cc2ccc(Cl)cc2)c2ccccc12` [Compound 250], the pIC50 under setting [1] was 5.60 to 6.00.

For the compound `N#Cc1ccccc1Cn1cc(C(=O)NCCc2ccc(Cl)c(F)c2)c2ccccc21` [Compound 235], the pIC50 is less than 5.60.

With `O=C(NCCc1nnc2ccccn12)c1nn(Cc2cc(F)cc(C(F)(F)F)c2)c2ccccc12` [Compound 509], the pIC50 is 6.30 to 7.00.

For `Cc1cccc(NC(=O)CS(=O)(=O)c2cn(Cc3ccc(Cl)cc3)c3ccccc23)c1` [Compound 243], the pIC50 under setting [1] is 6.00 to 6.30.

`Cc1ccc2nc(CCNC(=O)c3nn(Cc4ccc(Cl)cc4)c4ccccc34)[nH]c2c1` [Compound 560] gave a pIC50 of 6.30 to 7.00.

Regarding `O=C(NCCc1nnc2ccccn12)c1nn(Cc2ccc(Cl)cc2)c2c(Cl)cccc12` [Compound 539], the pIC50 was more than 7.00.
